# Measurements published in the NIST ThermoML archive (doi:10.1021/je700632z).
# Numbers after ± are expanded uncertainties.
# Conditions: 101.33 kPa, Liquid, Capillary tube (Ostwald / Ubbelohde) method
kinematic viscosity (298.15 K),kinematic viscosity (303.15 K),kinematic viscosity (308.15 K),kinematic viscosity (313.15 K),kinematic viscosity (318.15 K),Compound
1.065e-06 ± 1e-08 m2/s,9.96e-07 ± 1e-08 m2/s,9.05e-07 ± 1.1e-08 m2/s,8.37e-07 ± 6e-09 m2/s,7.51e-07 ± 1.1e-08 m2/s,FC(F)(F)C(F)(F)C(F)(F)C(F)(F)C(F)(F)C(F)(F)C(F)(F)C(F)(F)Br [1-bromoperfluorooctane]
5.43e-07 ± 4e-09 m2/s,5.12e-07 ± 9e-09 m2/s,4.82e-07 ± 1.1e-08 m2/s,4.48e-07 ± 7e-09 m2/s,4.34e-07 ± 7e-09 m2/s,FC(F)(F)C(F)(F)C(F)(F)C(F)(F)C(F)(F)C(F)(F)C(F)(F)F [hexadecafluoroheptane]
7.11e-07 ± 7.4e-09 m2/s,6.56e-07 ± 6.9e-09 m2/s,6.08e-07 ± 6.4e-09 m2/s,5.65e-07 ± 6e-09 m2/s,5.27e-07 ± 5.6e-09 m2/s,FC(F)(F)C(F)(F)C(F)(F)C(F)(F)C(F)(F)C(F)(F)C(F)(F)C(F)(F)F [octadecafluorooctane]

# Further lines, the compound ahead of its results:
Compound,kinematic viscosity (298.15 K),kinematic viscosity (303.15 K),kinematic viscosity (308.15 K),kinematic viscosity (313.15 K),kinematic viscosity (318.15 K)
FC(F)(F)C(F)(F)C(F)(F)C(F)(F)C(F)(F)C(F)(F)C(F)(F)C(F)(F)C(F)(F)F [eicosafluorononane],1e-06 ± 1.2e-08 m2/s,9.11e-07 ± 9e-09 m2/s,8.33e-07 ± 8e-09 m2/s,7.73e-07 ± 6e-09 m2/s,7.14e-07 ± 7e-09 m2/s
Fc1c(F)c(F)c(F)c(F)c1F [hexafluorobenzene],5.81e-07 ± 9e-09 m2/s,5.35e-07 ± 1.1e-08 m2/s,4.91e-07 ± 4e-09 m2/s,4.5e-07 ± 7e-09 m2/s,4.23e-07 ± 9e-09 m2/s
Fc1c(F)c(F)c(C(F)(F)F)c(F)c1F [octafluorotoluene],5.88e-07 ± 4e-09 m2/s,5.51e-07 ± 5e-09 m2/s,5.16e-07 ± 4e-09 m2/s,4.84e-07 ± 4e-09 m2/s,4.57e-07 ± 4e-09 m2/s
FC(F)(F)C1(F)C(F)(F)C(F)(F)C(F)(F)C(F)(F)C1(F)F [perfluoro(methylcyclohexane)],9.31e-07 ± 8e-09 m2/s,8.43e-07 ± 9e-09 m2/s,7.72e-07 ± 8e-09 m2/s,7.22e-07 ± 9e-09 m2/s,6.84e-07 ± 9e-09 m2/s
FC1(F)C(F)(F)C(F)(F)C2(F)C(F)(F)C(F)(F)C(F)(F)C(F)(F)C2(F)C1(F)F (stereo not given) [perfluorodecalin],2.803e-06 ± 1.6e-08 m2/s,2.448e-06 ± 1.4e-08 m2/s,2.159e-06 ± 1.4e-08 m2/s,1.917e-06 ± 1.1e-08 m2/s,1.709e-06 ± 1e-08 m2/s
FC(F)(F)C(F)(F)C(F)(F)C(F)(F)C(F)(F)C(F)(F)F [perfluorohexane],4.17e-07 ± 5e-09 m2/s,3.97e-07 ± 9e-09 m2/s,3.72e-07 ± 4e-09 m2/s,3.57e-07 ± 5e-09 m2/s,3.43e-07 ± 4e-09 m2/s
